Reference: the supplement of paper PMC9663587

Assays:
Cabozantinib = compound: COc1cc2nccc(Oc3ccc(NC(=O)C4(C(=O)Nc5ccc(F)cc5)CC4)cc3)c2cc1OC [Cabozantinib]
Paclitaxel = compound: CC(=O)O[C@H]1C(=O)[C@@]2(C)[C@H]([C@H](OC(=O)c3ccccc3)[C@]3(O)C[C@H](OC(=O)[C@H](O)[C@@H](NC(=O)c4ccccc4)c4ccccc4)C(C)=C1C3(C)C)[C@]1(OC(C)=O)CO[C@@H]1C[C@@H]2O [Paclitaxel]
BSJ-03-123 = compound: CC(=O)c1c(C)c2cnc(Nc3ccc(N4CCN(CCOCCOCCOCCNC(=O)COc5cccc6c5C(=O)N(C5CCC(=O)NC5=O)C6=O)CC4)cn3)nc2n(C2CCCC2)c1=O [BSJ-03-123]
[1] = compound: CCc1cnn2c(NCc3ccc[n+]([O-])c3)cc(N3CCCC[C@H]3CCO)nc12
Vorinostat = compound: O=C(CCCCCCC(=O)Nc1ccccc1)NO [Vorinostat]
SHP099 = compound: CC1(CCN(CC1)C2=CN=C(C(=N2)N)C3=C(C(=CC=C3)Cl)Cl)N [SHP099]
Buparlisib/NVP-BKM120 = compound: Nc1cc(C(F)(F)F)c(-c2cc(N3CCOCC3)nc(N3CCOCC3)n2)cn1 [Buparlisib/NVP-BKM120]
[2] = compound: CCN1CCN(Cc2ccc(Nc3ncc(F)c(-c4cc(F)c5nc(C)n(C(C)C)c5c4)n3)nc2)CC1
AZD5363 = compound: NC1(C(=O)N[C@@H](CCO)c2ccc(Cl)cc2)CCN(c2nc[nH]c3nccc2-3)CC1 [AZD5363]
Flavopiridol = compound: CN1CC[C@H](c2c(O)cc(O)c3c(=O)cc(-c4ccccc4Cl)oc23)[C@H](O)C1 [Flavopiridol]; test: GR value, 72 h; higher = faster growth (1 = untreated, <0 = killing);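 note: breast cancer and non-malignant breast epithelial lines, nine half-log doses, viable cells counted by Hoechst and LIVE/DEAD dye imaging versus time-zero plates and DMSO controls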
[3] = compound: CCc1cnn2c(NCc3ccc[n+]([O-])c3)cc(N3CCCC[C@H]3CCO)nc12; test: as above
YKL-5-124 = compound: C=CC(=O)Nc1ccc(C(=O)Nc2[nH]nc3c2CN(C(=O)N[C@H](CN(C)C)c2ccccc2)C3(C)C)cc1 [YKL-5-124]; test: as above
LEE011/Ribociclib = compound: CN(C)C(=O)c1cc2cnc(Nc3ccc(N4CCNCC4)cn3)nc2n1C1CCCC1 [LEE011/Ribociclib]; test: as above
[4] = compound: CC(=O)c1c(C)c2cnc(Nc3ccc(N4CCNCC4)cn3)nc2n(C2CCCC2)c1=O; test: as above
THZ1 = compound: CN(C)C/C=C/C(=O)Nc1ccc(C(=O)Nc2cccc(Nc3ncc(Cl)c(-c4c[nH]c5ccccc45)n3)c2)cc1 [THZ1]; test: as above
[5] = compound: CCN1CCN(Cc2ccc(Nc3ncc(F)c(-c4cc(F)c5nc(C)n(C(C)C)c5c4)n3)nc2)CC1; test: as above
THZ531 = compound: CN(C)C/C=C/C(=O)Nc1ccc(C(=O)N2CCC[C@@H](Nc3ncc(Cl)c(-c4c[nH]c5ccccc45)n3)C2)cc1 [THZ531]; test: as above
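Throughout, for GR50, 72 h: breast cancer and non-malignant breast epithelial cell lines, Deep Dye Drop or Dye Drop imaging, nine half-log doses, GR normalized to time-zero plates and DMSO-only controls.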

UACC812
GR50, 72 h (Cabozantinib): 5.86 µM | GR50, 72 h (Paclitaxel): 0.00042 µM | GR50, 72 h (BSJ-03-123): 0.836 µM | GR50, 72 h [1]: 0.0303 µM | GR50, 72 h (Vorinostat): 1.12 µM | GR50, 72 h (SHP099): > 10 µM | GR50, 72 h (Buparlisib/NVP-BKM120): 0.0515 µM | GR50, 72 h [2]: 0.00485 µM | GR50, 72 h (AZD5363): 8.81 µM | GR value (Flavopiridol; 0.0001 µM): 0.797 GR | GR value (Flavopiridol; 0.0003162 µM): 1.15 GR | GR value (Flavopiridol; 0.001 µM): 0.734 GR | GR value (Flavopiridol; 0.003162 µM): 0.914 GR | GR value (Flavopiridol; 0.01 µM): 0.878 GR | GR value (Flavopiridol; 0.03162 µM): 0.785 GR | GR value (Flavopiridol; 0.1 µM): 0.457 GR | GR value (Flavopiridol; 0.3162 µM): -0.332 GR | GR value (Flavopiridol; 1 µM): -0.812 GR | GR value ([3]; 0.0001 µM): 1.17 GR | GR value ([3]; 0.0003162 µM): 1.22 GR | GR value ([3]; 0.001 µM): 1.63 GR | GR value ([3]; 0.003162 µM): 1.63 GR | GR value ([3]; 0.01 µM): 1.28 GR | GR value ([3]; 0.03162 µM): -0.347 GR | GR value ([3]; 0.1 µM): -0.932 GR | GR value ([3]; 0.3162 µM): -0.948 GR | GR value ([3]; 1 µM): -0.949 GR | GR value (YKL-5-124; 0.001 µM): 0.609 GR | GR value (YKL-5-124; 0.003162 µM): 0.318 GR | GR value (YKL-5-124; 0.01 µM): 0.142 GR | GR value (YKL-5-124; 0.03162 µM): -0.122 GR | GR value (YKL-5-124; 0.1 µM): -0.106 GR | GR value (YKL-5-124; 0.3162 µM): -0.151 GR | GR value (YKL-5-124; 1 µM): 0.0505 GR | GR value (YKL-5-124; 3.162 µM): -0.246 GR | GR value (YKL-5-124; 10 µM): -0.423 GR | GR value (LEE011/Ribociclib; 0.001 µM): 0.753 GR | GR value (LEE011/Ribociclib; 0.003162 µM): 0.55 GR | GR value (LEE011/Ribociclib; 0.01 µM): 0.569 GR | GR value (LEE011/Ribociclib; 0.03162 µM): 0.333 GR | GR value (LEE011/Ribociclib; 0.1 µM): 0.309 GR | GR value (LEE011/Ribociclib; 0.3162 µM): 0.218 GR | GR value (LEE011/Ribociclib; 1 µM): 0.148 GR | GR value (LEE011/Ribociclib; 3.162 µM): 0.171 GR | GR value (LEE011/Ribociclib; 10 µM): 0.0704 GR | GR value ([4]; 0.0003162 µM): 1.11 GR | GR value ([4]; 0.001 µM): 0.781 GR | GR value ([4]; 0.003162 µM): 0.839 GR | GR value ([4]; 0.01 µM): 0.637 GR | GR value ([4]; 0.03162 µM): 0.409 GR | GR value ([4]; 0.1 µM): 0.173 GR | GR value ([4]; 0.3162 µM): 0.0192 GR | GR value ([4]; 1 µM): -0.127 GR | GR value ([4]; 3.162 µM): -0.162 GR | GR value (THZ1; 0.0001 µM): 1.23 GR | GR value (THZ1; 0.0003162 µM): 1.05 GR | GR value (THZ1; 0.001 µM): 1.18 GR | GR value (THZ1; 0.003162 µM): 0.811 GR | GR value (THZ1; 0.01 µM): 1.1 GR | GR value (THZ1; 0.03162 µM): 0.842 GR | GR value (THZ1; 0.1 µM): 1.1 GR | GR value (THZ1; 0.3162 µM): 1.01 GR | GR value (THZ1; 1 µM): -0.293 GR | GR value ([5]; 0.001 µM): 0.849 GR | GR value ([5]; 0.003162 µM): 0.562 GR | GR value ([5]; 0.01 µM): 0.349 GR | GR value ([5]; 0.03162 µM): -0.073 GR | GR value ([5]; 0.1 µM): -0.212 GR | GR value ([5]; 0.3162 µM): -0.252 GR | GR value ([5]; 1 µM): -0.319 GR | GR value ([5]; 3.162 µM): -0.407 GR | GR value ([5]; 10 µM): -0.565 GR | GR value (THZ531; 0.0001 µM): 0.819 GR | GR value (THZ531; 0.0003162 µM): 1.04 GR | GR value (THZ531; 0.001 µM): 0.807 GR | GR value (THZ531; 0.003162 µM): 0.754 GR | GR value (THZ531; 0.01 µM): 0.851 GR | GR value (THZ531; 0.03162 µM): 0.958 GR | GR value (THZ531; 0.1 µM): 0.942 GR | GR value (THZ531; 0.3162 µM): 1.17 GR | GR value (THZ531; 1 µM): 0.547 GR
